The experiment has as its target T1, human CRTH2 (Homo sapiens, UniProt Q9Y5Y4).
T1 construct: expressed in transfected cells
T1 sequence (Q9Y5Y4 1-395): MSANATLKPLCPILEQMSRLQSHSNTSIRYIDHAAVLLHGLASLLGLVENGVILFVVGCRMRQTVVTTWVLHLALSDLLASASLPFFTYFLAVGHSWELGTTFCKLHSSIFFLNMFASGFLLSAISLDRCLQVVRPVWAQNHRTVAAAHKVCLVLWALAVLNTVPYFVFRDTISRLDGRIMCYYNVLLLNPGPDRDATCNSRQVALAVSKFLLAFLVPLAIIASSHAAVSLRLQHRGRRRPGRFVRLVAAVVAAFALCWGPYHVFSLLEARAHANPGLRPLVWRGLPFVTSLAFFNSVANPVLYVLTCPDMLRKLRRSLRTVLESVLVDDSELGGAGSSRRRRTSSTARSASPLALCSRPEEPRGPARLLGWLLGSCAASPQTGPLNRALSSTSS
The experiment is described as follows: Human CRTH2 Receptor Binding Assay (whole cell, [3H]ramatroban competition). As to conditions: CHO-K1 cells expressing human CRTH2 and G-alpha16; 20 nM [3H]ramatroban; 1 hour, room temperature. An excerpt: A whole cell receptor binding assay using [^3H]ramatroban as the competing radioactive ligand was employed to evaluate the compound binding activity to human CRTH2. The radioactive ligand [^3H]ramatroban was synthesized according to Sugimoto et. al. (Eur. J. Pharmacol. 524, 30-37, 2005) to a specific activity of 42 Ci/mmol.
A cell line stably expressing human CRTH2 was established by transfecting CHO-K1 cells with two mammalian expression vectors that harbored human CRTH2 and G-alpha16 cDNAs, respectively, using FuGene® 6 transfection reagent (from Roche). Stable clones expressing CRTH2 were selected by staining each clone with BM16 (BD Pharmingen™ from BD Biosciences, a division of Becton, Dickinson and Company), which is a rat monoclonal antibody to human CRTH2. The cells were maintained as monolayer cultures in Ham's F-12 medium containing 10% fetal bovine serum, 100 units/mL penicillin, 100 μg/mL streptomycin, 2 mM glutamine, 0.5 mg/mL G418 (geneticin) for CRTH2, and 0.2 mg/mL hygromycin-B (for G-alpha 16). For whole cell receptor binding assay, the monolayer cells were rinsed once with PBS (phosphate buffered saline), dissociated using ethylenediaminetetraacetate (Versene™ EDTA Lonza Inc.), and suspended in PBS containing 10 mM MgCl2 and 0.06% BSA (bovine serum albumin) at 1.5×10^6 cells/mL.
The binding reactions (0.2 mL) were performed in 96-well plates at room temperature in PBS containing 1.5×10^5 cells, 10 mM MgCl2, 0.06% BSA, 20 nM [^3H]ramatroban, and test compound at various concentrations. After 1 hour of binding reactions, the cells were harvested on GF™/B filter microplates (microtiter plates with embedded glass fiber from PerkinElmer, Inc.) and washed 5 times with PBS using a Filtermate™ Harvester (a cell harvester that harvests and washes cells from microplates from PerkinElmer, Inc.). The radioactivities bound to the cells were determined using a microplate scintillation counter (TopCount® NXT, from PerkinElmer, Inc.) after adding 50 μL of Microscint™ 20 scintillation fluid (from PerkinElmer, Inc.) to each well of the filter plates. The radioactivity from non-specific binding was determined by replacing compound with 10 μM of 15(R)-15-methyl PGD2 (from Cayman Chemical Company) in the reaction mixtures. The radioactivity bound to the cells in the absence of compound (total binding) was determined by replacing compound with 0.25% of DMSO (dimethyl sulfoxide) in the reaction mixture. Specific binding data were obtained by subtracting the radioactivity of non-specific binding from each binding data.
The IC50 value is defined as the concentration of the tested compound that is required for 50% inhibition of total specific binding. In order to calculate the IC50 value, the percent inhibition data were determined for 7 concentrations for each compound. The percent inhibition for a compound at each concentration was calculated according to the following formula, [1-(specific binding in the presence of compound)/(total specific binding)]x100. The IC50 value was then obtained by fitting the percent inhibition data to a sigmoidal dose-response (4 parameter logistic) model in the XLfit® software Excel add-in program [from ID Business Solutions Ltd., model 205, where F(x)=(A+(B−A)/(1+((C/x)^D)))].

pIC50: −log10 of the molar value.

Usually pIC50 stands for −log10 of the IC50, conventionally taken in molar units. The low end stands for a high IC50, the high end for a low IC50.

For `CN([C@@H]1CCCc2c1cnn2CC(=O)O)S(=O)(=O)c1cc(Cl)c(Oc2ccc(F)cc2)cc1F` [Example 9-30a, ((R)-4-{[5-Chloro-2-fluoro-4-(4-fluoro-phenoxy)-benzenesulfonyl]-methyl-amino}-4,5,6,7-tetrahydro-indazol-1-yl)-acetic acid], the pIC50 is 7.42.
On to `O=C(O)Cn1ncc2c1CCCC2NS(=O)(=O)c1ccc(-c2cc(C(F)(F)F)cc(C(F)(F)F)c2)cc1` (centres unmarked) [Example 10-24a, [4-(3′,5′-Bis-trifluoromethyl-biphenyl-4-sulfonylamino)-4,5,6,7-tetrahydro-indazol-1-yl]-acetic acid], for which the pIC50 was 7.01.
Regarding `CN([C@@H]1CCCc2c1cnn2CC(=O)O)S(=O)(=O)c1ccc(Oc2ccc(OC(F)(F)F)cc2)c(Cl)c1` [Example 9-28a, ((R)-4-{[3-Chloro-4-(4-trifluoromethoxy-phenoxy)-benzenesulfonyl]-methyl-amino}-4,5,6,7-tetrahydro-indazol-1-yl)-acetic acid], the pIC50 is 7.93.
In turn, `O=C(O)Cn1ncc2c1CCCC2NS(=O)(=O)c1cnc(Oc2ccc(C(F)(F)F)cc2)c(Br)c1` (centres unmarked) [Example 2-7a, {4-[5-Bromo-6-(4-trifluoromethyl-phenoxy)-pyridine-3-sulfonylamino]-4,5,6,7-tetrahydro-indazol-1-yl}-acetic acid] gave a pIC50 of 6.41.
Next, `CN([C@@H]1CCCc2c1cnn2CC(=O)O)S(=O)(=O)c1ccc(Oc2cccc(Cl)c2)c(Cl)c1` [Example 9-2a, ((R)-4-{[3-Chloro-4-(3-chloro-phenoxy)-benzenesulfonyl]-methyl-amino}-4,5,6,7-tetrahydro-indazol-1-yl)-acetic acid]: 7.91; `Cc1ccc(Oc2ccc(S(=O)(=O)N(C)[C@@H]3CCCc4c3cnn4CC(=O)O)cc2Cl)c(C)c1` [Example 9-19a, ((R)-4-{[3-Chloro-4-(2,4-dimethyl-phenoxy)-benzenesulfonyl]-methyl-amino}-4,5,6,7-tetrahydro-indazol-1-yl)-acetic acid]: 7.94.
Take `O=C(O)Cn1ncc2c1CCCC2NS(=O)(=O)c1ccc(-c2cccc(O)c2)cc1` (centres unmarked) [Example 10-19a, [4-(3′-Hydroxy-biphenyl-4-sulfonylamino)-4,5,6,7-tetrahydro-indazol-1-yl]-acetic acid]: the pIC50 is 6.57.
For the compound `O=C(O)Cn1ncc2c1CCC[C@H]2NS(=O)(=O)c1ccc(-c2cccc(Cl)c2)cc1` [Example 10-13a, [(R)-4-(3′-Chloro-biphenyl-4-sulfonylamino)-4,5,6,7-tetrahydro-indazol-1-yl]-acetic acid], the pIC50 was 6.82.
The figure for `CN([C@@H]1CCCc2c1cnn2CC(=O)O)S(=O)(=O)c1cnc(Oc2ccc(Cl)c(F)c2)c(Br)c1` [Example 6-10a, ((R)-4-{[5-Bromo-6-(4-chloro-3-fluoro-phenoxy)-pyridine-3-sulfonyl]-methyl-amino}-4,5,6,7-tetrahydro-indazol-1-yl)-acetic acid] is 7.73.
`CN([C@@H]1CCCc2c1cnn2CC(=O)O)S(=O)(=O)c1ccc(Oc2ccc(F)c(Cl)c2)c(Cl)c1` [Example 9-24a, ((R)-4-{[3-Chloro-4-(3-chloro-4-fluoro-phenoxy)-benzenesulfonyl]-methyl-amino}-4,5,6,7-tetrahydro-indazol-1-yl)-acetic acid] gave a pIC50 of 7.78.
Consider `C[S+]([O-])c1cccc(-c2ccc(S(=O)(=O)N[C@@H]3CCCc4c3cnn4CC(=O)O)cc2)c1` (stereo partly drawn) [Example 10-29a, [(R)-4-(3′-Methanesulfinyl-biphenyl-4-sulfonylamino)-4,5,6,7-tetrahydro-indazol-1-yl]-acetic acid], for which the pIC50 was 7.56.
`CN([C@@H]1CCCc2c1cnn2CC(=O)O)S(=O)(=O)c1ccc(Oc2cc(F)ccc2F)c(Cl)c1` [Example 9-22a, ((R)-4-{[3-Chloro-4-(2,5-difluoro-phenoxy)-benzenesulfonyl]-methyl-amino}-4,5,6,7-tetrahydro-indazol-1-yl)-acetic acid]: the pIC50 is 7.62.
The compound `CN([C@@H]1CCCc2c1cnn2CC(=O)O)S(=O)(=O)c1cnc(Oc2cc(Cl)cc(Cl)c2)c(Br)c1` [Example 6-3a, ((R)-4-{[5-Bromo-6-(3,5-dichloro-phenoxy)-pyridine-3-sulfonyl]-methyl-amino}-4,5,6,7-tetrahydro-indazol-1-yl)-acetic acid] had a pIC50 of 7.58.
The figure for `Cc1ccc(Oc2ccc(S(=O)(=O)N(C)[C@@H]3CCCc4c3cnn4CC(=O)O)cc2Cl)cc1` [Example 9-15a, {(R)-4-[(3-Chloro-4-p-tolyloxy-benzenesulfonyl)-methyl-amino]-4,5,6,7-tetrahydro-indazol-1-yl}-acetic acid] is 7.99.
Regarding `CN([C@@H]1CCCc2c1cnn2CC(=O)O)S(=O)(=O)c1cc(C(F)(F)F)cc(S(=O)(=O)c2ccc(Cl)cc2)c1` [Example 13-1a, ((R)-4-{[3-(4-Chloro-benzenesulfonyl)-5-trifluoromethyl-benzenesulfonyl]-methylamino}-4,5,6,7-tetrahydro-indazol-1-yl)-acetic acid], the pIC50 is 8.54.
`CN([C@@H]1CCCc2c1cnn2CC(=O)O)S(=O)(=O)c1ccc(-c2cccc(C(F)(F)F)c2)cc1` [Example 11-1a, {(R)-4-[Methyl-(3′-trifluoromethyl-biphenyl-4-sulfonyl)-amino]-4,5,6,7-tetrahydro-indazol-1-yl}-acetic acid]: the pIC50 was 8.14.
Next, `Cc1cc(S(=O)(=O)N(C)[C@@H]2CCCc3c2cnn3CC(=O)O)ccc1Oc1ccc(F)cc1` [Example 9-35a, ((R)-4-{[4-(4-Fluoro-phenoxy)-3-methyl-benzenesulfonyl]-methyl-amino}-4,5,6,7-tetrahydro-indazol-1-yl)-acetic acid]: 7.77; `O=C(O)Cn1ncc2c1CCC[C@H]2NS(=O)(=O)c1ccc(Oc2ccccc2Cl)cc1` [Example 1-1a, {(R)-4-[4-(2-Chloro-phenoxy)-benzenesulfonylamino]-4,5,6,7-tetrahydro-indazol-1-yl}-acetic acid]: 7.56.
Consider `COc1cccc(-c2ccc(S(=O)(=O)NC3CCCc4c3cnn4CC(=O)O)cc2)c1` (centres unmarked) [Example 10-10a, [4-(3′-Methoxy-biphenyl-4-sulfonylamino)-4,5,6,7-tetrahydro-indazol-1-yl]-acetic acid], for which the negative-log IC50 (pIC50) is 6.43.
Compound `O=C(O)Cn1ncc2c1CCC[C@H]2NS(=O)(=O)c1ccc(Oc2ccccc2Cl)c(Cl)c1` [Example 5-1a, {(R)-4-[3-Chloro-4-[2-chloro-phenoxy)-benzenesulfonylamino]-4,5,6,7-tetrahydro-indazol-1-yl}-acetic acid] showed a pIC50 of 7.84.
Next, `O=C(O)Cn1ncc2c1CCCC2NS(=O)(=O)c1ccc(Oc2ccc(F)cc2)nc1` (centres unmarked) [Example 4-1a, {4-[6-(4-Fluoro-phenoxy)-pyridine-3-sulfonylamino]-4,5,6,7-tetrahydro-indazol-1-yl}-acetic acid]: 6.80; `O=C(O)Cn1ncc2c1CCCC2NS(=O)(=O)c1cnc(Oc2cccc(Cl)c2)c(Br)c1` (centres unmarked) [Example 2-3a, {4-[5-Bromo-6-(3-chloro-phenoxy)-pyridine-3-sulfonylamino]-4,5,6,7-tetrahydro-indazol-1-yl}-acetic acid]: 7.71; `O=C(O)Cn1ncc2c1CCC[C@H]2NS(=O)(=O)c1cnc(Oc2ccccc2Cl)c(Br)c1` [Example 2-9a, {(R)-4-[5-Bromo-6-(2-chloro-phenoxy)-pyridine-3-sulfonylamino]-4,5,6,7-tetrahydro-indazol-1-yl}-acetic acid]: 8.08.

Values taken from US8420675B2, “Aminotetrahydroindazoloacetic acids” (Hoffmann-La Roche Inc., priority 2008, dated 2013).
